Data on two molecules can be found in patent US20050037335A1, “Method for identifying novel transcriptional regulatory proteins” (priority 1999, published 2005).

One test addresses T1, tTA (Wildtype) (Escherichia coli, UniProt P04483).
T1 construct: expressed in transfected cells; host or cells: HeLa cells, transient transfection
The test can be described thus: Inducer-dependent repression of luciferase activity by tTA, transient transfection in HeLa cells. Format: cell-based.

Another test addresses T2, tTA-45 (L170V) (Escherichia coli, UniProt P04483, L170V).
T2 construct: expressed in transfected cells; host or cells: HeLa cells, transient transfection
Briefly: Inducer-dependent repression of luciferase activity by tTA-45, transient transfection in HeLa cells. Format: cell-based. The procedure: One mutant that was isolated from this screen, tTA-45, was sequenced and found to carry an amino acid exchange at position 170 from a leucine to a valine (L170V). The induction efficiency of tTA-45 in response to varying concentrations of Tc or Dox was determined in transient transfection assays in HeLa cells. The inducer concentration leading to 50% repression of the luciferase activity (IC50) was determined and is described in Table 3 below.

T1 sequence (P04483 whole entry, added parts left off): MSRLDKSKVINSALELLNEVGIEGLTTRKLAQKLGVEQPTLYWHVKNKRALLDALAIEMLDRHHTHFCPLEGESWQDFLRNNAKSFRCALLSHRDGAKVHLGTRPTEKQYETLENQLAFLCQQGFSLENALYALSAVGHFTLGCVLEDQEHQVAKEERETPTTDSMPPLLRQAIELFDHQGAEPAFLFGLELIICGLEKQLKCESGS
T2 sequence (P04483 other isoform, or with tags, fused parts or gaps L170V): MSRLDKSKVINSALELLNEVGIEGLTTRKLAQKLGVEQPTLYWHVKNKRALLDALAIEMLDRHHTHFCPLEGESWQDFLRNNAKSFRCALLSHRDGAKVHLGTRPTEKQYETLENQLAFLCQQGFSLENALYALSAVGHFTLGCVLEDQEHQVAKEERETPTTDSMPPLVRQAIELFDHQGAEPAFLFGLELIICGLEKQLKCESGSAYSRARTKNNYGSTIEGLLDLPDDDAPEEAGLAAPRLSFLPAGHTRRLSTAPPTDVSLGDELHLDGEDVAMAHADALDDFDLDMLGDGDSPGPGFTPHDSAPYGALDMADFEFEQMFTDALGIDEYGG

What is called IC50 is the concentration that inhibits the measured activity by half. A lower IC50 goes with higher potency. Regarding `C[C@H]1c2cccc(O)c2C(=O)C2=C(O)[C@]3(O)C(=O)C(C(N)=O)=C(O)[C@@H](N(C)C)[C@@H]3[C@@H](O)[C@@H]21` [Dox, doxycycline], the IC50 is 1.35 nM against tTA (Wildtype) and 11.3 nM on tTA-45 (L170V).

Regarding `CN(C)[C@@H]1C(O)=C(C(N)=O)C(=O)[C@@]2(O)C(O)=C3C(=O)c4c(O)cccc4[C@@](C)(O)[C@H]3C[C@@H]12` [Tc, tetracycline], the values for the IC50 on tTA (Wildtype) and against tTA-45 (L170V) were 6.75 nM and 608 nM, respectively.
